Reference: patent US12559529B2, “NPY2 receptor agonists” (Boehringer Ingelheim International GmbH, priority 2019, dated 2026)
*1 amine or outer side, *2 acyl side, *3 side chain or, on linkers, in order; H or OH if unused. Where a SMILES comes first, the peptide text is derived from it. Side-chain parts run from the residue outwards. The star is where a group is joined. C18 diacid = O=C(O)CCCCCCCCCCCCCCCCC(=O)*; γGlu = O=C(O)[C@H](CCC(=O)[*:2])N[*:1]; Isovaleryl = CC(C)CC(=O)*; AEEA = NCCOCCOCC(=O)O

Key:
[1] = target: T1, Human Neuropeptide Y2 Receptor (Homo sapiens, UniProt P49146); experiment: Radioligand binding competition assay (RLB); details: Table 3; human 125I-PYY (1-36) 0.02 nM, Y2 receptor membranes; read-out: Ki
T1 construct: purchased CHEMICON HTS066M
T1 sequence (P49146 1-381): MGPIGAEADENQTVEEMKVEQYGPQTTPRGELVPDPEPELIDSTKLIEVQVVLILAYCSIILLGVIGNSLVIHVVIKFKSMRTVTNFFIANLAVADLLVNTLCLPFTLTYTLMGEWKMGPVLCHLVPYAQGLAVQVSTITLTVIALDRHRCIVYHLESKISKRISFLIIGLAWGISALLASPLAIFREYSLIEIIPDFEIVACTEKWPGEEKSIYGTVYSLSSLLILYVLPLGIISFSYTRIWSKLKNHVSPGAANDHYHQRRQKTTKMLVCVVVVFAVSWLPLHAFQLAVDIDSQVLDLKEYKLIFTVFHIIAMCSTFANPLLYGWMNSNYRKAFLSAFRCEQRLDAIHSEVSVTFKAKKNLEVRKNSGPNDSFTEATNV
Method in brief: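 Competition binding at commercial human NPY Y2 membrane preparations, 0.5 μg protein per well, 2 h incubation at room temperature. Bound and free ligand were separated on GF/C filters and counted; IC50 was fitted by nonlinear regression.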

normal NMRI mice = experiment: Effect on acute food intake in normal NMRI mice; assay type: in vivo; details: male NMRI mice, 10 nmol/kg subcutaneously once
Method: Male NMRI mice were obtained from Charles River (Charles River, Research Models & Services Germany GmbH) or from Jan Vier (Jan Vier Labs, France) at 5 weeks of age. […] Room temperature was controlled to 21° C.±1° C., with 60%+20% humidity.
Animals were transferred 5-7 days before the start of the study to a real-time food intake monitoring system, HM-2 system (MBRose, Denmark), to allow acclimatization to experimental conditions. As the animals were uniquely identified with microchips, each individual animal was identified by its microchip upon entry and exit from the food channel. Randomization of the mice for each study group (n=7-8) was based on body weight measured the day before the start of the study. A vehicle-treated (50 mM phosphate buffer pH7 with 5% Mannitol) group was included in each experiment. Six hours before the start of the night phase animals were fasted. One hour before the dark phase animals were dosed once subcutaneously (10 nmol/kg) with test peptide. […] The food intake of the treated groups was normalized (in %) to the average food intake of the group receiving vehicle (Table 7). Statistical significance was evaluated using One-way analysis of variance with Turkey's multiple comparison test. P<0.05 was considered statistically significant.

Ki [1] [nM]	SMILES	Acute Food Intake 24 h [% vehicle] (normal NMRI mice)
3.14	CC(C)CC(=O)N[C@@H](C)C(=O)N1CCC[C@H]1C(=O)N[C@@H](CCC(=O)O)C(=O)N[C@@H](CCCCNC(=O)COCCOCCNC(=O)COCCOCCNC(=O)CC[C@H](NC(=O)CCCCCCCCCCCCCCCCC(=O)O)C(=O)O)C(=O)N1CCC[C@H]1C(=O)N[C@@H](CCC(=O)O)C(=O)N[C@@H](CCC(=O)O)C(=O)N[C@@H](CCC(=O)O)C(=O)N[C@@H](C)C(=O)N[C@@H](CO)C(=O)N1CCC[C@H]1C(=O)N[C@@H](C)C(=O)N[C@@H](CCC(=O)O)C(=O)N[C@@H](CC(C)C)C(=O)N[C@@H](CCC(N)=O)C(=O)N[C@@H](CCCNC(=N)N)C(=O)N[C@@H](Cc1ccc(O)cc1)C(=O)N[C@@H](Cc1ccc(O)cc1)C(=O)N[C@H](C(=O)N[C@@H](CO)C(=O)N[C@@H](CC(C)C)C(=O)N[C@@H](CCCNC(=N)N)C(=O)N[C@@H](Cc1c[nH]cn1)C(=O)N[C@@H](Cc1ccc(O)cc1)C(=O)N[C@@H](Cc1ccc(O)cc1)C(=O)N[C@@H](CC(N)=O)C(=O)N[C@@H](Cc1c[nH]c2ccccc12)C(=O)N[C@@H](CC(C)C)C(=O)N[C@H](C(=O)N[C@@H](CCCNC(=N)N)C(=O)N[C@@H](CCC(N)=O)C(=O)N[C@@H](CCCNC(=N)N)C(=O)N[C@@H](Cc1ccc(O)cc1)C(N)=O)[C@@H](C)O)C(C)C [Compound 3, N{alpha-4}-(3-methylbutanoyl)-N{epsilon-7}-[2-(2-{2-[2-(2-{2-[(4S)-4-carboxy-4-(17-carboxyheptadecanamido)butanamido]ethoxy}ethoxy)acetamido]ethoxy}ethoxy)acetamido]-[4A,7K,9E,11E,15A,18Q,22V,28Y,30W,31L]hPYY (4-36)] (Isovaleryl-APEK([AEEA-AEEA-γGlu-C18 diacid])PEEEASPAELQRYYVSLRHYYNWLTRQRY-NH2)	62
1.02	CC(C)CC(=O)N[C@@H](C)C(=O)N1CCC[C@H]1C(=O)N[C@@H](CCC(=O)O)C(=O)N[C@@H](CCCCNC(=O)COCCOCCNC(=O)COCCOCCNC(=O)CC[C@H](NC(=O)CCCCCCCCCCCCCCCCC(=O)O)C(=O)O)C(=O)N1CCC[C@H]1C(=O)N[C@@H](CCC(=O)O)C(=O)N[C@@H](CCC(=O)O)C(=O)N[C@@H](CC(=O)O)C(=O)N[C@@H](C)C(=O)N[C@@H](CO)C(=O)N1CCC[C@H]1C(=O)N[C@@H](CCC(=O)O)C(=O)N[C@@H](CCC(=O)O)C(=O)N[C@@H](CC(C)C)C(=O)N[C@@H](CCC(N)=O)C(=O)N[C@@H](C)C(=O)N[C@@H](Cc1ccc(O)cc1)C(=O)N[C@@H](Cc1ccc(O)cc1)C(=O)N[C@H](C(=O)N[C@@H](CO)C(=O)N[C@@H](CC(C)C)C(=O)N[C@@H](CCCNC(=N)N)C(=O)N[C@@H](Cc1c[nH]cn1)C(=O)N[C@@H](Cc1ccc(O)cc1)C(=O)N[C@@H](Cc1ccc(O)cc1)C(=O)N[C@@H](CC(N)=O)C(=O)N[C@@H](Cc1c[nH]c2ccccc12)C(=O)N[C@@H](CC(C)C)C(=O)N[C@H](C(=O)N[C@@H](CCCNC(=N)N)C(=O)N[C@@H](CCC(N)=O)C(=O)N[C@@H](CCCNC(=N)N)C(=O)N[C@@H](Cc1ccc(O)cc1)C(N)=O)[C@@H](C)O)C(C)C [Compound 7, N{alpha-4}-(3-methylbutanoyl)-N{epsilon-7}-[2-(2-{2-[2-(2-{2-[(4S)-4-carboxy-4-(17-carboxyheptadecanamido)butanamido]ethoxy}ethoxy)acetamido]ethoxy}ethoxy)acetamido]-[4A,7K,9E,18Q,19A,22V,28Y,30W,31L]hPYY (4-36)]	47
1.22	CC[C@H](C)[C@H](NC(=O)[C@H](CCC(=O)O)NC(=O)[C@H](CCC(=O)O)NC(=O)[C@@H]1CCCN1C(=O)[C@H](CO)NC(=O)[C@H](C)NC(=O)[C@H](CC(=O)O)NC(=O)[C@H](CCC(=O)O)NC(=O)[C@H](CCC(=O)O)NC(=O)[C@@H]1CCCN1C(=O)[C@H](CCCCNC(=O)COCCOCCNC(=O)COCCOCCNC(=O)CC[C@H](NC(=O)CCCCCCCCCCCCCCCCC(=O)O)C(=O)O)NC(=O)[C@H](CCC(=O)O)NC(=O)[C@@H]1CCCN1C(=O)[C@H](C)NC(=O)CC(C)C)C(=O)N[C@@H](CCC(N)=O)C(=O)N[C@@H](CCCNC(=N)N)C(=O)N[C@@H](Cc1ccc(O)cc1)C(=O)N[C@@H](Cc1ccc(O)cc1)C(=O)N[C@H](C(=O)N[C@@H](CCC(=O)O)C(=O)N[C@@H](CC(C)C)C(=O)N[C@@H](CCCNC(=N)N)C(=O)N[C@@H](Cc1c[nH]cn1)C(=O)N[C@@H](Cc1ccc(O)cc1)C(=O)N[C@@H](Cc1ccc(O)cc1)C(=O)N[C@@H](CC(N)=O)C(=O)N[C@@H](Cc1c[nH]c2ccccc12)C(=O)N[C@@H](CC(C)C)C(=O)N[C@H](C(=O)N[C@@H](CCCNC(=N)N)C(=O)N[C@@H](CCC(N)=O)C(=O)N[C@@H](CCCNC(=N)N)C(=O)N[C@@H](Cc1ccc(O)cc1)C(N)=O)[C@@H](C)O)C(C)C [Compound 9, N{alpha-4}-(3-methylbutanoyl)-N{epsilon-7}-[2-(2-{2-[2-(2-{2-[(4S)-4-carboxy-4-(17-carboxyheptadecanamido)butanamido]ethoxy}ethoxy)acetamido]ethoxy}ethoxy)acetamido]-[4A,7K,9E,17I,18Q,22V,23E,28Y,30W,31L]hPYY (4-36)]	44
–	CC(C)CC(=O)N[C@@H](C)C(=O)N1CCC[C@H]1C(=O)N[C@@H](CCC(=O)O)C(=O)N[C@@H](CCCCNC(=O)COCCOCCNC(=O)COCCOCCNC(=O)CC[C@H](NC(=O)CCCCCCCCCCCCCCCCC(=O)O)C(=O)O)C(=O)N1CCC[C@H]1C(=O)N[C@@H](CCC(=O)O)C(=O)N[C@@H](CCC(=O)O)C(=O)N[C@@H](CC(=O)O)C(=O)N[C@@H](C)C(=O)N[C@@H](CO)C(=O)N1CCC[C@H]1C(=O)N[C@@H](CCC(=O)O)C(=O)N[C@@H](CCC(=O)O)C(=O)N[C@@H](CC(C)C)C(=O)N[C@@H](CCC(N)=O)C(=O)N[C@@H](CCC(N)=O)C(=O)N[C@@H](Cc1ccc(O)cc1)C(=O)N[C@@H](CCC(=O)O)C(=O)N[C@H](C(=O)N[C@@H](CO)C(=O)N[C@@H](CC(C)C)C(=O)N[C@@H](CCCNC(=N)N)C(=O)N[C@@H](Cc1c[nH]cn1)C(=O)N[C@@H](Cc1ccc(O)cc1)C(=O)N[C@@H](Cc1ccc(O)cc1)C(=O)N[C@@H](CC(N)=O)C(=O)N[C@@H](Cc1c[nH]c2ccccc12)C(=O)N[C@@H](CC(C)C)C(=O)N[C@H](C(=O)N[C@@H](CCCNC(=N)N)C(=O)N[C@@H](CCC(N)=O)C(=O)N[C@@H](CCCNC(=N)N)C(=O)N[C@@H](Cc1ccc(O)cc1)C(N)=O)[C@@H](C)O)C(C)C [Compound 167, N{alpha-4}-(3-methylbutanoyl)-N{epsilon-7}-[2-(2-{2-[2-(2-{2-[(4S)-4-carboxy-4-(17-carboxyheptadecanamido)butanamido]ethoxy}ethoxy)acetamido]ethoxy}ethoxy)acetamido]-[4A,7K,9E,18Q,19Q,21E,22V,28Y,30W,31L]hPYY (4-36)] (Isovaleryl-APEK([AEEA-AEEA-γGlu-C18 diacid])PEEDASPEELQQYEVSLRHYYNWLTRQRY-NH2)	73
